Results taken from ChEMBL document CHEMBL1201862, “PubChem BioAssay data set” (2004).
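Step 1: Grow cells in 96-well plates. Step 2: Expose to compound for 48 hours at 5 concentrations. Step 3: Interpolate endpoints linearly; if unreached, use highest concentration. GI50 = concentration required for 50% inhibition of growth.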 Calls of active or inactive are those of the source. Cut-off read from the data, not from the text of the source: active = GI50 up to about 1.1 µM and inactive = higher.

Assays:
Experiment in all cases: inhibition of tumour cell growth, NCI panel, 48 h
HCT-116 = system: HCT-116
SN12C = system: SN12C
NCI-H23 = system: NCI-H23
MDA-N = system: MDA-N
BT-549 = system: BT-549
SNB-19 = system: SNB-19
SNB-75 = system: SNB-75
NCI/ADR-RES = system: NCI/ADR-RES
A498 = system: A498
TK-10 = system: TK-10
IGROV-1 = system: IGROV-1
LOX IMVI = system: LOX IMVI
HOP-62 = system: HOP-62
A549 = system: A549
SK-MEL-28 = system: SK-MEL-28
OVCAR-8 = system: OVCAR-8
HT-29 = system: HT-29
U-251 = system: U-251
CCRF-CEM = system: CCRF-CEM
NCI-H522 = system: NCI-H522

CCN1CCC(O)(c2ccc(Oc3ccc(Cl)cc3)cc2)C(C(=O)c2ccc(Oc3ccc(Cl)cc3)cc2)C1 (stereo not given)
GI50 (HCT-116): 3.78 µM (inactive) | GI50 (SN12C): 13.7 µM (inactive) | GI50 (NCI-H23): 11.7 µM (inactive) | GI50 (MDA-N): 14 µM (inactive) | GI50 (BT-549): 14.5 µM (inactive) | GI50 (SNB-19): 14.5 µM (inactive) | GI50 (SNB-75): 12.9 µM (inactive) | GI50 (NCI/ADR-RES): 17.3 µM (inactive) | GI50 (A498): 8.61 µM (inactive) | GI50 (TK-10): 10.6 µM (inactive) | GI50 (IGROV-1): 8.38 µM (inactive) | GI50 (LOX IMVI): 3.78 µM (inactive) | GI50 (HOP-62): 9.48 µM (inactive) | GI50 (A549): 6.97 µM (inactive) | GI50 (SK-MEL-28): 20.5 µM (inactive) | GI50 (OVCAR-8): 17.1 µM (inactive) | GI50 (HT-29): 5.07 µM (inactive) | GI50 (U-251): > 10 µM (inactive) | GI50 (CCRF-CEM): 3.44 µM (inactive) | GI50 (NCI-H522): 2.83 µM (inactive)

C/C(=C/CC[C@](C)(OC1OC(CO)C(O)C(O)C1OC1OC(C)C(O)C(O)C1O)[C@H]1CC[C@]2(C)[C@@H]1CC[C@@H]1[C@@]3(C)CC[C@H](O)C(C)(C)[C@@H]3C[C@H](O)[C@]12C)CO (stereo not given in full)
GI50 (HCT-116): > 100 µM (inactive) | GI50 (SN12C): > 100 µM (inactive) | GI50 (NCI-H23): > 100 µM (inactive) | GI50 (MDA-N): > 100 µM (inactive) | GI50 (BT-549): > 100 µM (inactive) | GI50 (SNB-19): > 100 µM (inactive) | GI50 (SNB-75): > 100 µM (inactive) | GI50 (NCI/ADR-RES): > 100 µM (inactive) | GI50 (A498): > 100 µM (inactive) | GI50 (TK-10): > 100 µM (inactive) | GI50 (IGROV-1): > 100 µM (inactive) | GI50 (LOX IMVI): > 100 µM (inactive) | GI50 (HOP-62): > 100 µM (inactive) | GI50 (A549): > 100 µM (inactive) | GI50 (SK-MEL-28): > 100 µM (inactive) | GI50 (OVCAR-8): > 100 µM (inactive) | GI50 (HT-29): > 100 µM (inactive) | GI50 (U-251): > 100 µM (inactive) | GI50 (CCRF-CEM): > 100 µM (inactive) | GI50 (NCI-H522): > 100 µM (inactive)

O=[N+]([O-])C(=C1NCCN1)/C(Cl)=C(\Cl)Br
GI50 (HCT-116): 28.8 µM (inactive) | GI50 (SN12C): 41.2 µM (inactive) | GI50 (NCI-H23): > 49.8 µM (inactive) | GI50 (MDA-N): 34.5 µM (inactive) | GI50 (BT-549): 36.1 µM (inactive) | GI50 (SNB-19): > 100 µM (inactive) | GI50 (SNB-75): 27.2 µM (inactive) | GI50 (NCI/ADR-RES): > 63.1 µM (inactive) | GI50 (A498): > 44.9 µM (inactive) | GI50 (TK-10): > 72.4 µM (inactive) | GI50 (IGROV-1): 52.2 µM (inactive) | GI50 (LOX IMVI): 15.7 µM (inactive) | GI50 (HOP-62): > 100 µM (inactive) | GI50 (A549): > 100 µM (inactive) | GI50 (SK-MEL-28): 32 µM (inactive) | GI50 (OVCAR-8): 40.3 µM (inactive) | GI50 (HT-29): 30.1 µM (inactive) | GI50 (U-251): 49.3 µM (inactive) | GI50 (CCRF-CEM): 7.1 µM (inactive) | GI50 (NCI-H522): 19.1 µM (inactive)

COC(O)C(=O)c1c2c(cc3c1CCC3)CCC2 (stereo not given)
GI50 (HCT-116): > 100 µM (inactive) | GI50 (SN12C): > 100 µM (inactive) | GI50 (NCI-H23): > 100 µM (inactive) | GI50 (MDA-N): > 100 µM (inactive) | GI50 (BT-549): > 100 µM (inactive) | GI50 (SNB-19): > 100 µM (inactive) | GI50 (SNB-75): > 100 µM (inactive) | GI50 (NCI/ADR-RES): > 100 µM (inactive) | GI50 (A498): > 100 µM (inactive) | GI50 (TK-10): > 100 µM (inactive) | GI50 (IGROV-1): > 100 µM (inactive) | GI50 (LOX IMVI): > 100 µM (inactive) | GI50 (HOP-62): > 100 µM (inactive) | GI50 (A549): > 100 µM (inactive) | GI50 (SK-MEL-28): > 100 µM (inactive) | GI50 (OVCAR-8): > 100 µM (inactive) | GI50 (HT-29): > 100 µM (inactive) | GI50 (U-251): > 100 µM (inactive) | GI50 (CCRF-CEM): 55 µM (inactive) | GI50 (NCI-H522): > 100 µM (inactive)

N#CC(C#N)=Cc1c(O)ccc2ccccc12
GI50 (HCT-116): 11.4 µM (inactive) | GI50 (SN12C): 13.6 µM (inactive) | GI50 (NCI-H23): 12.2 µM (inactive) | GI50 (MDA-N): 12.7 µM (inactive) | GI50 (BT-549): 16.7 µM (inactive) | GI50 (SNB-19): 15.4 µM (inactive) | GI50 (SNB-75): 3.3 µM (inactive) | GI50 (NCI/ADR-RES): 17.3 µM (inactive) | GI50 (A498): 16 µM (inactive) | GI50 (TK-10): 18.1 µM (inactive) | GI50 (IGROV-1): 17.8 µM (inactive) | GI50 (LOX IMVI): 12.1 µM (inactive) | GI50 (HOP-62): 20.6 µM (inactive) | GI50 (A549): 17.1 µM (inactive) | GI50 (SK-MEL-28): 14.5 µM (inactive) | GI50 (OVCAR-8): 16.3 µM (inactive) | GI50 (HT-29): 14.5 µM (inactive) | GI50 (U-251): 15.9 µM (inactive) | GI50 (CCRF-CEM): 1.57 µM (inactive) | GI50 (NCI-H522): 9.93 µM (inactive)

COc1cc(Cn2c(=S)ss/c2=N\C(=S)N(C)C)cc(OC)c1OC
GI50 (HCT-116): 4.53 µM (inactive) | GI50 (SN12C): > 50.2 µM (inactive) | GI50 (NCI-H23): 14.7 µM (inactive) | GI50 (MDA-N): 1.1 µM (active) | GI50 (BT-549): > 20.7 µM (inactive) | GI50 (SNB-19): 46.1 µM (inactive) | GI50 (SNB-75): 3.77 µM (inactive) | GI50 (NCI/ADR-RES): 1.61 µM (inactive) | GI50 (A498): 22.6 µM (inactive) | GI50 (TK-10): 34.8 µM (inactive) | GI50 (IGROV-1): 17.2 µM (inactive) | GI50 (LOX IMVI): 4.69 µM (inactive) | GI50 (HOP-62): 13.3 µM (inactive) | GI50 (A549): 13.2 µM (inactive) | GI50 (SK-MEL-28): 10 µM (inactive) | GI50 (OVCAR-8): 52.6 µM (inactive) | GI50 (HT-29): 4.04 µM (inactive) | GI50 (U-251): 4.61 µM (inactive) | GI50 (CCRF-CEM): 4.32 µM (inactive) | GI50 (NCI-H522): 2.3 µM (inactive)

CC(N/N=C(\S)N1CCCCCC1)c1cccnn1 (stereo not given)
GI50 (HCT-116): 0.325 µM (active) | GI50 (SN12C): 0.484 µM (active) | GI50 (NCI-H23): 0.254 µM (active) | GI50 (MDA-N): 0.684 µM (active) | GI50 (BT-549): 0.392 µM (active) | GI50 (SNB-19): 0.381 µM (active) | GI50 (SNB-75): 1.75 µM (inactive) | GI50 (NCI/ADR-RES): 0.409 µM (active) | GI50 (A498): 0.764 µM (active) | GI50 (TK-10): 0.706 µM (active) | GI50 (IGROV-1): 0.361 µM (active) | GI50 (LOX IMVI): 0.304 µM (active) | GI50 (HOP-62): 0.374 µM (active) | GI50 (A549): 0.301 µM (active) | GI50 (SK-MEL-28): 0.482 µM (active) | GI50 (OVCAR-8): 0.239 µM (active) | GI50 (HT-29): 0.483 µM (active) | GI50 (U-251): 0.326 µM (active) | GI50 (CCRF-CEM): 0.112 µM (active) | GI50 (NCI-H522): 0.2 µM (active)
